The structures appear in SMILES notation.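 Tested at 5 concentrations; 48 h exposure; 96-well plates; endpoints linearly interpolated, else capped at highest concentration. TGI: total growth inhibition.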

The values that follow come from PubChem BioAssay (NCI).

Among the test systems are 786-0 renal; CAKI-1 renal; DU-145 prostate; HCT-116 colon; HOP-92 NSCLC; KM12 colon; MDA-MB-231 breast; MDA-MB-435; MDA-N; NCI-H460 lung; NCI/ADR-RES ovarian; OVCAR-4 ovarian; RXF 393 renal; SF-539 CNS; SK-MEL-2 melanoma; SK-MEL-28 melanoma; T-47D breast; K-562 leukemia; SK-OV-3 ovarian; RPMI-8226 leukemia.
What all share (test): NCI tumour cell line growth inhibition, 48 h

Take `COc1ccc(-c2nnc3n(Cc4ccccc4)c4ccccc4n3c2=O)cc1`: the TGI was 25.1 µM with 786-0 renal; 45 µM in the assay with CAKI-1 renal; over 100 µM in the assay with DU-145 prostate; over 100 µM in the assay on HCT-116 colon; 95 µM in the assay with HOP-92 NSCLC; over 100 µM with KM12 colon. For the same molecule, the TGI with MDA-MB-231 breast was over 100 µM; in the assay on MDA-MB-435 it was over 100 µM; with MDA-N, over 100 µM; in the assay with NCI-H460 lung it was over 100 µM; in the assay on NCI/ADR-RES ovarian, over 100 µM; in the assay with OVCAR-4 ovarian, 43.6 µM. Moreover, the TGI in the assay with RXF 393 renal was 61.8 µM; in the assay on SF-539 CNS, 34.3 µM; with SK-MEL-2 melanoma it was over 100 µM; with SK-MEL-28 melanoma it was over 100 µM; with T-47D breast it was over 100 µM.

For the molecule `COc1cc2c(cc1OC)CN1CCCc3cc(OC)c(OC)cc3C1C2` (stereo not drawn), the TGI with 786-0 renal, with CAKI-1 renal, in the assay on DU-145 prostate, in the assay with HCT-116 colon, in the assay with HOP-92 NSCLC and in the assay with K-562 leukemia was over 100 µM each time. Further, the TGI in the assay on KM12 colon is over 100 µM; in the assay on MDA-MB-231 breast, over 100 µM; in the assay with MDA-MB-435 it was 47.5 µM; in the assay on MDA-N, 42.4 µM; in the assay on NCI-H460 lung, over 100 µM; in the assay with NCI/ADR-RES ovarian it was over 100 µM. The TGI in the assay on OVCAR-4 ovarian is over 100 µM; in the assay on RXF 393 renal it was 94.4 µM; with SF-539 CNS it was 50.1 µM; with SK-MEL-28 melanoma it was over 100 µM; with SK-OV-3 ovarian it was over 100 µM; in the assay on T-47D breast, over 100 µM.

On to `O=c1oc2ccccc2c(O)c1/C=N/C(=S)NCc1ccccc1`, for which the TGI in the assay with 786-0 renal was over 100 µM; in the assay with CAKI-1 renal, 63.7 µM; with DU-145 prostate it was over 100 µM; with HCT-116 colon, over 100 µM; with HOP-92 NSCLC, over 100 µM; with KM12 colon, over 100 µM. Besides, the TGI with MDA-MB-231 breast, in the assay with MDA-MB-435, in the assay on MDA-N, with NCI-H460 lung, in the assay on NCI/ADR-RES ovarian and in the assay with OVCAR-4 ovarian was over 100 µM in each case. In addition, the TGI with SF-539 CNS, in the assay with SK-MEL-2 melanoma, in the assay on SK-MEL-28 melanoma, in the assay on SK-OV-3 ovarian and with T-47D breast was over 100 µM in each case.

In the case of `Cc1cc(=O)[nH]c2cc(NC(=O)C(CCCN=C(N)N)NC(=O)OCc3ccccc3)ccc12` (stereo not drawn), the TGI with 786-0 renal, in the assay with CAKI-1 renal, in the assay on DU-145 prostate, with HCT-116 colon, in the assay with HOP-92 NSCLC and in the assay on K-562 leukemia was over 100 µM in each case. Further, the TGI in the assay with KM12 colon, with MDA-MB-231 breast, in the assay with MDA-MB-435, in the assay on MDA-N, in the assay with NCI-H460 lung and in the assay on NCI/ADR-RES ovarian was over 100 µM each time. The TGI with OVCAR-4 ovarian was over 100 µM; in the assay on SF-539 CNS, over 100 µM; in the assay with SK-MEL-2 melanoma it was over 100 µM; in the assay on SK-MEL-28 melanoma, over 100 µM; in the assay on SK-OV-3 ovarian, 25.6 µM; in the assay on T-47D breast, over 100 µM.

With `COC(=O)C(C(=O)C(=O)Nc1ccccc1C#N)c1nc2ccc([N+](=O)[O-])cc2[nH]c1=O` (stereo not drawn), the TGI with 786-0 renal, with CAKI-1 renal, in the assay on DU-145 prostate, in the assay with HCT-116 colon, in the assay on HOP-92 NSCLC and in the assay with KM12 colon was over 100 µM in each case. For the same molecule, the TGI in the assay with MDA-MB-231 breast, in the assay on MDA-MB-435, in the assay with MDA-N, with NCI-H460 lung, with NCI/ADR-RES ovarian and with OVCAR-4 ovarian was over 100 µM each time. Besides, the TGI in the assay on RXF 393 renal, in the assay with SF-539 CNS, in the assay on SK-MEL-2 melanoma, with SK-MEL-28 melanoma, in the assay on SK-OV-3 ovarian and with T-47D breast was over 100 µM in each case.

Turning to `COc1cc(OC)c2c(=O)c(OC)c(-c3ccc4c(c3)OCO4)oc2c1OC`, the TGI in the assay on 786-0 renal was over 100 µM; with CAKI-1 renal, over 100 µM; in the assay with DU-145 prostate, over 100 µM; in the assay with HCT-116 colon, over 100 µM; with HOP-92 NSCLC, 90.9 µM; in the assay on K-562 leukemia, over 100 µM. The TGI in the assay with KM12 colon, in the assay with MDA-MB-231 breast, in the assay on MDA-MB-435, in the assay with MDA-N, with NCI-H460 lung and with NCI/ADR-RES ovarian was over 100 µM in each case. Moreover, the TGI in the assay on RXF 393 renal, in the assay on SF-539 CNS, in the assay with SK-MEL-2 melanoma, in the assay with SK-MEL-28 melanoma, in the assay with SK-OV-3 ovarian and in the assay on T-47D breast was over 100 µM each time.

For the molecule `S=C(N/N=C/c1ccccn1)Nc1ccc(Cl)cc1`, the TGI is 16.1 µM with 786-0 renal; 30.5 µM in the assay with CAKI-1 renal; over 100 µM with DU-145 prostate; over 88.5 µM in the assay on HCT-116 colon; over 57.6 µM in the assay on HOP-92 NSCLC; over 100 µM in the assay with KM12 colon. Also, the TGI in the assay with MDA-MB-231 breast is over 100 µM; in the assay on MDA-MB-435 it was over 100 µM; with MDA-N it was over 100 µM; in the assay on NCI-H460 lung, over 100 µM; with OVCAR-4 ovarian, over 100 µM; with RPMI-8226 leukemia it was over 26.4 µM. In addition, the TGI in the assay on SF-539 CNS is 14.4 µM; in the assay with SK-MEL-2 melanoma it was over 100 µM; in the assay on SK-MEL-28 melanoma, over 100 µM; in the assay with SK-OV-3 ovarian, 10.5 µM; with T-47D breast it was over 100 µM.
